Test results as given in the CheMixHub ionic liquid set.

Test: xn = mol fraction of the nth substance listed
Conditions: 100 kPa

CCCC[N+](C)(C)C.O=S(=O)([N-]S(=O)(=O)C(F)(F)F)C(F)(F)F + O=S(=O)([N-]S(=O)(=O)C(F)(F)F)C(F)(F)F.[Li+] + O
viscosity [mPa·s]
Conditions	293.15 K	298.15 K	303.15 K	313.15 K	323.15 K	333.15 K	343.15 K	353.15 K	363.15 K
x2 = 0.2745, x1 = 0.2745	100	78	59	38.1	26.5	19	14.2	10.9	8.61
x2 = 0.3106, x1 = 0.2745	150	115	88.9	53.9	35.5	24.7	18.1	13.7	10.6
x2 = 0.3509, x1 = 0.2745	264	192	145	87.4	51	34.7	24.6	18.2	13.9
x2 = 0.3868, x1 = 0.2745	341	245	182	106	65.4	43.1	30.1	21.3	16.5
x2 = 0.4308, x1 = 0.2745	494	401	289	162	99	58.8	40.6	28.8	21.2

CC[n+]1ccn(C)c1.O=C([O-])C(F)(F)F + OCC(O)CO
Conditions	electrical conductivity, 298.15 K [S/m]	electrical conductivity, 313.15 K [S/m]	viscosity, 293.15 K [mPa·s]	viscosity, 298.15 K [mPa·s]	viscosity, 303.15 K [mPa·s]	viscosity, 313.15 K [mPa·s]
x1 = 0.002	0.000383	0.0012	1382	893	592	280.8
x1 = 0.004	0.00069	0.00217	–	–	–	–
x1 = 0.013	0.00211	0.0066	1264	818	544	259.8
x2 = 0.202	0.81	1.37	47	38.2	31.3	22
x2 = 0.3	0.71	1.23	58	46.3	37.5	25.7
x2 = 0.399	0.57	1.02	65.5	51.5	41.1	27.5
x2 = 0.5	0.436	0.84	86	66.1	51.7	33.4
x2 = 0.6	0.305	0.63	115.9	86.6	66.1	40.8
x2 = 0.7	0.184	0.411	177.8	128.2	94.6	55
x2 = 0.8	0.08	0.199	316	218.7	155.2	84.1
x2 = 0.9	0.023	0.065	639	427	291.2	146.8
x2 = 0.956	0.0076	0.0231	983	643	432	210
x2 = 0.979	0.00328	0.0103	1188	772	514	246.5

CC[n+]1ccn(C)c1.O=C([O-])C(F)(F)F + OCCN(CCO)CCO
Conditions	electrical conductivity, 298.15 K [S/m]	electrical conductivity, 313.15 K [S/m]	viscosity, 293.15 K [mPa·s]	viscosity, 298.15 K [mPa·s]	viscosity, 303.15 K [mPa·s]	viscosity, 313.15 K [mPa·s]
x1 = 0.006	0.00085	0.0024	878	581	395	197.6
x1 = 0.007	0.00084	0.00237	871	576	392	196.1
x2 = 0.393	0.423	0.76	76.3	60	47.9	32
x2 = 0.501	0.287	0.54	98.1	75.4	59	38.1
x2 = 0.6	0.182	0.37	135.1	101	77	47.7
x2 = 0.692	0.109	0.237	190.6	139	103.5	61.2
x2 = 0.778	0.061	0.143	279.5	198.3	143.8	81.2
x2 = 0.857	0.0281	0.07	413	284.7	201.3	108.7
x2 = 0.931	0.0095	0.0268	621	419	289.4	149.9
x2 = 0.966	0.00397	0.0113	751	501	344	174.6
x2 = 0.98	0.0025	0.007	775	518	354	179.3

CC[n+]1ccn(C)c1.O=C([O-])C(F)(F)F + OCCO
Conditions	electrical conductivity, 298.15 K [S/m]	electrical conductivity, 313.15 K [S/m]	viscosity, 293.15 K [mPa·s]	viscosity, 298.15 K [mPa·s]	viscosity, 303.15 K [mPa·s]	viscosity, 313.15 K [mPa·s]
x1 = 0.001	0.0126	0.0215	20.8	16.9	13.8	9.56
x1 = 0.003	0.0278	0.0473	20.8	16.8	13.8	9.54
x1 = 0.009	0.065	0.111	20.6	16.7	13.7	9.53
x1 = 0.015	0.106	0.18	20.5	16.6	13.7	9.49
x2 = 0.489	1.36	2.23	20.6	17.5	14.9	11.1
x2 = 0.602	1.48	2.25	18.4	15.5	13.2	9.84
x2 = 0.71	1.33	2.06	17.2	14.5	12.3	9.09
x2 = 0.783	1.11	1.72	17.2	14.3	12.1	8.83
x2 = 0.843	0.89	1.41	17.6	14.6	12.2	8.81
x2 = 0.894	0.63	1.03	18.4	15.1	12.5	8.95
x2 = 0.934	0.415	0.69	19.3	15.8	13	9.2
x2 = 0.97	0.2	0.339	20.2	16.4	13.5	9.4
